ChEMBL document CHEMBL1828607, “N-Heteroaryl glycinamides and glycinamines as potent NPY5 antagonists” (Bioorg Med Chem Lett, 2011)
≈ marks a conversion by molar mass, not a printed value.

How the values were obtained:
[1] = in vivo; conditions: Sprague-Dawley, rat, plasma, po, 10 mg/kg
Description: Drug level in femoral artery cannulated Sprague-Dawley rat plasma at 10 mg/kg, po after 1 hr by LC/MS/MS method

[2] = physchem; conditions: buffer, pH 7.4
Description: Solubility of the compound at pH 7.4

[3] = physchem; conditions: octanol/water
Description: Lipophilicity, log D of the compound

[4] = in vivo; conditions: Sprague-Dawley, rat, brain, po, 10 mg/kg
Description: Drug level in femoral artery cannulated Sprague-Dawley rat brain at 10 mg/kg, po after 1 hr by LC/MS/MS method

[5] = in vivo; conditions: Sprague-Dawley, rat, brain/plasma, po, 10 mg/kg
Description: Ratio of drug level in brain to plasma in femoral artery cannulated Sprague-Dawley rat at 10 mg/kg, po after 1 hr by LC/MS/MS method

| concentration at 1 h [1] [nM] | concentration at 1 h [4] [nM] | Kp at 1 h [5] | SMILES | solubility [2] [µg/mL] | logD [3] |
| --- | --- | --- | --- | --- | --- |
| 481 | 33 | 0.07 | CC(C)S(=O)(=O)NC[C@H]1CC[C@H](NC(=O)CN2C(=O)COc3cc(Cl)ccc32)CC1 |  |  |
| 430 | 43 | 0.1 | CC(C)S(=O)(=O)NC[C@H]1CC[C@H](NC(=O)CN2CCOc3cc(Cl)ccc32)CC1 |  |  |
| 879 | 16 | 0.02 | CC(C)S(=O)(=O)NC[C@H]1CC[C@H](NC(=O)CN2C(=O)CCc3cc(Cl)ccc32)CC1 |  |  |

| SMILES | concentration at 1 h [1] [nM] | concentration at 1 h [4] [nM] | Kp at 1 h [5] | solubility [2] [µg/mL] | logD [3] |
| --- | --- | --- | --- | --- | --- |
| CN(C)S(=O)(=O)NC[C@H]1CC[C@H](NC(=O)CN2C(=O)CC(C)(C)Sc3ccccc32)CC1 | 1.5 |  |  | 440 (≈ 912 µM) | 2.4 |
